Tests used:
Test in all cases: Kinobeads competition binding profiling, two doses (100 nM and 1 µM);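 note: inhibitor preincubated 45 min at 4 °C in cell lysate, then bead pulldown. Bound protein quantified by label-free mass spectrometry relative to DMSO vehicle control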
[1] = target: T1, endogenous kinases and other proteins enriched by Kinobeads from mixed lysates of K-562, COLO-205, MV-4-11, SK-N-BE(2) and OVCAR-8 (Homo sapiens, UniProt P07948); conditions: read-out: Lestaurtinib Drugmatrix value (apparent Kd), Gene Name LYN; target LYN; each column = one Lestaurtinib control run_replicate
T1 construct: endogenous in cells

[2] = target: T2, endogenous kinases and other proteins enriched by Kinobeads from mixed lysates of K-562, COLO-205, MV-4-11, SK-N-BE(2) and OVCAR-8 (Homo sapiens, UniProt Q05397); conditions: read-out: Lestaurtinib Drugmatrix value, Gene Name PTK2
T2 construct: endogenous in cells
T2 sequence (Q05397 whole entry): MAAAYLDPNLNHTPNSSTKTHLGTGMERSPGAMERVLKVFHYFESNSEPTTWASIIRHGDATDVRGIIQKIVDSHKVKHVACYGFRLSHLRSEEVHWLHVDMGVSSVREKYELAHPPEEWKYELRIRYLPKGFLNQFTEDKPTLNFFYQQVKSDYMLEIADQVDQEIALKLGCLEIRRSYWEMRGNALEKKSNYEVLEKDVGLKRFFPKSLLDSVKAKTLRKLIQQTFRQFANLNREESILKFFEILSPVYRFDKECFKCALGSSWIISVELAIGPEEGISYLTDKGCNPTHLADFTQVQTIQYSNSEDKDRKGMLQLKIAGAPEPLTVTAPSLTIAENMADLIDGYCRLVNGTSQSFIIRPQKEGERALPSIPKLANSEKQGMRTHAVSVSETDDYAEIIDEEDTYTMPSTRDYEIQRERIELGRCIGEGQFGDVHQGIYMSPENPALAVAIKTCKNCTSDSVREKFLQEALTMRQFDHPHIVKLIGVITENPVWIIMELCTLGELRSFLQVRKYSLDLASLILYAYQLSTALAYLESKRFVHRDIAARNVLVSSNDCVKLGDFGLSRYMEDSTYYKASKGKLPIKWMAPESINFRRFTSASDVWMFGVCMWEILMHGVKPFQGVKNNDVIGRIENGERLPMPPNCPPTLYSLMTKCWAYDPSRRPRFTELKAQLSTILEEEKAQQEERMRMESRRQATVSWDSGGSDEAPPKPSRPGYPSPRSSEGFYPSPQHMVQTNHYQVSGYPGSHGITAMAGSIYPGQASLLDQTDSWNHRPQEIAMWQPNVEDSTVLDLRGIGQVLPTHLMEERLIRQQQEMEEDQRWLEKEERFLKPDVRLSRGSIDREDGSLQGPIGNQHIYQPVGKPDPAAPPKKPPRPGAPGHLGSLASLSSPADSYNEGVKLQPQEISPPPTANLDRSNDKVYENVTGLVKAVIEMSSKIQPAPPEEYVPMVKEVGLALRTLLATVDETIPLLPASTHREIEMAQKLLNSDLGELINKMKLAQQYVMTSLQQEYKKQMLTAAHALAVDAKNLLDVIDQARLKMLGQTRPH

[3] = target: T3, endogenous kinases and other proteins enriched by Kinobeads from mixed lysates of K-562, COLO-205, MV-4-11, SK-N-BE(2) and OVCAR-8 (Homo sapiens, UniProt O43353); conditions: read-out: Lestaurtinib Drugmatrix value, Gene Name RIPK2; target RIPK2; one Lestaurtinib control experiment/replicate (R1-R3)
T3 construct: to maximize the representation of endogenous proteins; endogenous in cells
T3 sequence (O43353 whole entry): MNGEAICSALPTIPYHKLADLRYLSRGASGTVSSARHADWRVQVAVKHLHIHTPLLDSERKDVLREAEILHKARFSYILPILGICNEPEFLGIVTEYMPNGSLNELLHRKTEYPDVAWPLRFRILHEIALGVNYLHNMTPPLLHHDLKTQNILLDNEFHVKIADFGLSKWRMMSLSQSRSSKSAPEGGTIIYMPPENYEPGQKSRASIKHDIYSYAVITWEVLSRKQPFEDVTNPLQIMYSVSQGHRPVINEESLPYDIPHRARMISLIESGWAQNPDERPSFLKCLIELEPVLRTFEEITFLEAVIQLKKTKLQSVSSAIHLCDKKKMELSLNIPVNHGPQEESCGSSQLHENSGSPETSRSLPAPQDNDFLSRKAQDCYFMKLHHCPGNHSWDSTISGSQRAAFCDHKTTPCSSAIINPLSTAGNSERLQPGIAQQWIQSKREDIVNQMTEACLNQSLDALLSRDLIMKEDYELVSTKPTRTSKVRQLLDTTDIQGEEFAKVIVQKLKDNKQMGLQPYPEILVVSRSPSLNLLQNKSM

[4] = target: T4, endogenous kinases and other proteins enriched by Kinobeads from mixed lysates of K-562, COLO-205, MV-4-11, SK-N-BE(2) and OVCAR-8 (Homo sapiens, UniProt P42345); conditions: read-out: Lestaurtinib Drugmatrix value (apparent Kd), Gene Name MTOR; target MTOR; each column = one Lestaurtinib control run_replicate
T4 construct: endogenous in cells

[5] = target: T5, endogenous kinases and other proteins enriched by Kinobeads from mixed lysates of K-562, COLO-205, MV-4-11, SK-N-BE(2) and OVCAR-8 (Homo sapiens, UniProt Q13188); conditions: read-out: Lestaurtinib Drugmatrix value, Gene Name STK3; target STK3; one Lestaurtinib control experiment/replicate (R1-R3)
T5 construct: endogenous in cells
T5 sequence (Q13188 whole entry): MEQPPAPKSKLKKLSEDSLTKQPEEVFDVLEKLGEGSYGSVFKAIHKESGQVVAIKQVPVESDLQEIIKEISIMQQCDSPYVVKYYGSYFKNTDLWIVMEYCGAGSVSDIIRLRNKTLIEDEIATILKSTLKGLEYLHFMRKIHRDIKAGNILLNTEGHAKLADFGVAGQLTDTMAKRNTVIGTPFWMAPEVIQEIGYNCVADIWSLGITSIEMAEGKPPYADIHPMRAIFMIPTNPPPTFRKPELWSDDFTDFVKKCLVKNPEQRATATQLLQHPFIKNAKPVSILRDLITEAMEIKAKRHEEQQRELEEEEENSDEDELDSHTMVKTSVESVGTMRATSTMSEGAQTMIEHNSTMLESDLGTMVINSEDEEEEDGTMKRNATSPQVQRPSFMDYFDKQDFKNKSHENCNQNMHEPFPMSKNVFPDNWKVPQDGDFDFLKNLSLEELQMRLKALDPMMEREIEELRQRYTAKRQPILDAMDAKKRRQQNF

[6] = target: T6, endogenous kinases and other proteins enriched by Kinobeads from mixed lysates of K-562, COLO-205, MV-4-11, SK-N-BE(2) and OVCAR-8 (Homo sapiens, UniProt Q8WZ42); conditions: read-out: Lestaurtinib Drugmatrix value, Gene Name TTN; target TTN; one Lestaurtinib control experiment/replicate (R1-R3)
T6 construct: endogenous in cells

[7] = target: T7, endogenous kinases and other proteins enriched by Kinobeads from mixed lysates of K-562, COLO-205, MV-4-11, SK-N-BE(2) and OVCAR-8 (Homo sapiens, UniProt Q12866); conditions: MERTK
T7 construct: endogenous in cells

[8] = target: T8, endogenous kinases and other proteins enriched by Kinobeads from mixed lysates of K-562, COLO-205, MV-4-11, SK-N-BE(2) and OVCAR-8 (Homo sapiens, UniProt P51956); conditions: NEK3
T8 construct: endogenous in cells
T8 sequence (P51956 whole entry): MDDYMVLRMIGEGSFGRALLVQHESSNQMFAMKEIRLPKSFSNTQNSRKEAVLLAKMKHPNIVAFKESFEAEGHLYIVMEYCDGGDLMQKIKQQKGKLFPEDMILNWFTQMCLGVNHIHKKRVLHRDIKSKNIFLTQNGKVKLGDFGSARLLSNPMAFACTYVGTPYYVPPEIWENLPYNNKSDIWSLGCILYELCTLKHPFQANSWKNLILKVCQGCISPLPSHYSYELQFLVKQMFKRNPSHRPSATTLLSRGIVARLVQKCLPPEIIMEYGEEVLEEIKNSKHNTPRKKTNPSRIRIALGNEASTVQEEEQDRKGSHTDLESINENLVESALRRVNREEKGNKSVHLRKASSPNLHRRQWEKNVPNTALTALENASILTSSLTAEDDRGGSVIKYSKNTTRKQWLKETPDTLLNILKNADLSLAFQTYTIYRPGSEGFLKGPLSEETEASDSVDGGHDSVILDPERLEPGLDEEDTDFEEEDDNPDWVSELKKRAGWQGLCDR

[9] = target: T9, endogenous kinases and other proteins enriched by Kinobeads from mixed lysates of K-562, COLO-205, MV-4-11, SK-N-BE(2) and OVCAR-8 (Homo sapiens, UniProt Q9UHD2); conditions: TBK1
T9 construct: endogenous in cells

[10] = target: T10, endogenous kinases and other proteins enriched by Kinobeads from mixed lysates of K-562, COLO-205, MV-4-11, SK-N-BE(2) and OVCAR-8 (Homo sapiens, UniProt Q13627); conditions: DYRK1A
T10 construct: endogenous in cells

[11] = target: T11, endogenous kinases and other proteins enriched by Kinobeads from mixed lysates of K-562, COLO-205, MV-4-11, SK-N-BE(2) and OVCAR-8 (Homo sapiens, UniProt Q16832); conditions: DDR2
T11 construct: endogenous in cells

[12] = target: T12, endogenous kinases and other proteins enriched by Kinobeads from mixed lysates of K-562, COLO-205, MV-4-11, SK-N-BE(2) and OVCAR-8 (Homo sapiens, UniProt P49759); conditions: CLK1
T12 construct: endogenous in cells

[13] = target: T13, endogenous kinases and other proteins enriched by Kinobeads from mixed lysates of K-562, COLO-205, MV-4-11, SK-N-BE(2) and OVCAR-8 (Homo sapiens, UniProt Q9Y463); conditions: DYRK1B
T13 construct: endogenous in cells

[14] = target: T14, endogenous kinases and other proteins enriched by Kinobeads from mixed lysates of K-562, COLO-205, MV-4-11, SK-N-BE(2) and OVCAR-8 (Homo sapiens, UniProt P80192); conditions: MLK1
T14 construct: endogenous in cells

[15] = target: T15, endogenous kinases and other proteins enriched by Kinobeads from mixed lysates of K-562, COLO-205, MV-4-11, SK-N-BE(2) and OVCAR-8 (Homo sapiens, UniProt Q08345); conditions: DDR1
T15 construct: endogenous in cells

[16] = target: T16, endogenous kinases and other proteins enriched by Kinobeads from mixed lysates of K-562, COLO-205, MV-4-11, SK-N-BE(2) and OVCAR-8 (Homo sapiens, UniProt O60674); conditions: JAK2(JH1domain-catalytic)
T16 construct: endogenous in cells

[17] = target: T17, endogenous kinases and other proteins enriched by Kinobeads from mixed lysates of K-562, COLO-205, MV-4-11, SK-N-BE(2) and OVCAR-8 (Homo sapiens, UniProt P51955); conditions: NEK2
T17 construct: endogenous in cells
T17 sequence (P51955 whole entry): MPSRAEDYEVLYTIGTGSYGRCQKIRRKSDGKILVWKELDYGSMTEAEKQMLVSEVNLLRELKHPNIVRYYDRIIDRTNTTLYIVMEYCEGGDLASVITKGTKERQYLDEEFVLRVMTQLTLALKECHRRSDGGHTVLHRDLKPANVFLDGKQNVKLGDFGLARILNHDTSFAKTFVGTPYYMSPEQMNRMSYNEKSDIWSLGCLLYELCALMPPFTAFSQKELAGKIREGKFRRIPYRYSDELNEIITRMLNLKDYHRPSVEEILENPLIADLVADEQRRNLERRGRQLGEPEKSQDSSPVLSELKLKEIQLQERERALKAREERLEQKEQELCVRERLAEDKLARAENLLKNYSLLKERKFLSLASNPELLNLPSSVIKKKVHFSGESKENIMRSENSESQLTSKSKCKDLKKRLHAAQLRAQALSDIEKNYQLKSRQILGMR

[18] = target: T18, endogenous kinases and other proteins enriched by Kinobeads from mixed lysates of K-562, COLO-205, MV-4-11, SK-N-BE(2) and OVCAR-8 (Homo sapiens, UniProt Q15418); conditions: RSK1(Kin.Dom.1-N-terminal)
T18 construct: endogenous in cells

[19] = target: T19, endogenous kinases and other proteins enriched by Kinobeads from mixed lysates of K-562, COLO-205, MV-4-11, SK-N-BE(2) and OVCAR-8 (Homo sapiens, UniProt Q9Y6R4); conditions: MAP3K4
T19 construct: to maximize the representation of endogenous proteins; endogenous in cells
T19 sequence (Q9Y6R4 whole entry): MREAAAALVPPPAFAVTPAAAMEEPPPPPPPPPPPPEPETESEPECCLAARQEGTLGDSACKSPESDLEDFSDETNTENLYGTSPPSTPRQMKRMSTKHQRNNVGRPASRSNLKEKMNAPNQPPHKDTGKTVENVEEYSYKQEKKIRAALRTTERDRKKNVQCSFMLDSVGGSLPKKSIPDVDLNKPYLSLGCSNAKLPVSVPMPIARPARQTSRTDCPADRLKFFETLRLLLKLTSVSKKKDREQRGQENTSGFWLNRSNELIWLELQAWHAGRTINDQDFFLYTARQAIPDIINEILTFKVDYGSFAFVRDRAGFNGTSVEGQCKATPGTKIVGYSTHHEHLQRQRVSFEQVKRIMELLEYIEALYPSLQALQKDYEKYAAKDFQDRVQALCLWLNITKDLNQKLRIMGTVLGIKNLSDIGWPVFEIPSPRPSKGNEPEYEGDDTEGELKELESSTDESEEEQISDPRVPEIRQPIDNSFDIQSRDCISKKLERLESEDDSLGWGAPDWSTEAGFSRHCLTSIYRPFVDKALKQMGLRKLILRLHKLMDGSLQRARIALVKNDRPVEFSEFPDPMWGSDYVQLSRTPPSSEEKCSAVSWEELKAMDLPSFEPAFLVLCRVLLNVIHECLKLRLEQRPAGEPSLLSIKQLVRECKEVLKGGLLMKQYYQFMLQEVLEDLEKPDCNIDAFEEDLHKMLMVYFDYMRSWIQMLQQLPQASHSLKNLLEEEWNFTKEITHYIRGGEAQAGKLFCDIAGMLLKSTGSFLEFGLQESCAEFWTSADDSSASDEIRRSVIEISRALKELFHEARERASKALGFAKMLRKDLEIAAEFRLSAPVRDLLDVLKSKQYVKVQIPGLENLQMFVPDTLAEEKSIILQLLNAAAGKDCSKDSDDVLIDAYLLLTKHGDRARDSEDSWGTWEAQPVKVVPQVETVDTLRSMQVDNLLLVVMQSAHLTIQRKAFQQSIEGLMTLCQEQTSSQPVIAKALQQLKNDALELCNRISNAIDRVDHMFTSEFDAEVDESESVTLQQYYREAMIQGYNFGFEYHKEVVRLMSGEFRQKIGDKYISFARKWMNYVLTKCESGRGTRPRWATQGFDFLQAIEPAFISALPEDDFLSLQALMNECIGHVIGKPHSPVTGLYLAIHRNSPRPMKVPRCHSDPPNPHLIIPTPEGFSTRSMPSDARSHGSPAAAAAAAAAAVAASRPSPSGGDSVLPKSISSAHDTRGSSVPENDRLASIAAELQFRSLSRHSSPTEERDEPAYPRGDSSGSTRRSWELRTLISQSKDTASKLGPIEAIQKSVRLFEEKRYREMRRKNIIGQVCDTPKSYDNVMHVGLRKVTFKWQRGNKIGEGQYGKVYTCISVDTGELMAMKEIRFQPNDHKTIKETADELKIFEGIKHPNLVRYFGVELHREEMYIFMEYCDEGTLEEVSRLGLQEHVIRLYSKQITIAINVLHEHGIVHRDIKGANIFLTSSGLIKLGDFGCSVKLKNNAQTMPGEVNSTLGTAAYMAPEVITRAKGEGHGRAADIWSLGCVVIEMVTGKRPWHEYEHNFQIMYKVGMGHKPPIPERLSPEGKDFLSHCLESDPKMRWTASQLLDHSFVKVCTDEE

[20] = target: T20, endogenous kinases and other proteins enriched by Kinobeads from mixed lysates of K-562, COLO-205, MV-4-11, SK-N-BE(2) and OVCAR-8 (Homo sapiens, UniProt Q8TD19); conditions: NEK9
T20 construct: endogenous in cells

[21] = target: T21, endogenous kinases and other proteins enriched by Kinobeads from mixed lysates of K-562, COLO-205, MV-4-11, SK-N-BE(2) and OVCAR-8 (Homo sapiens, UniProt O14578); conditions: CIT
T21 construct: to maximize the representation of endogenous proteins; endogenous in cells

C[C@]12O[C@H](C[C@]1(O)CO)n1c3ccccc3c3c4c(c5c6ccccc6n2c5c31)CNC4=O [Lestaurtinib]
potency estimated from few doses [1]: 808 nM | potency estimated from few doses [2]: 345 nM | potency estimated from few doses [3]: 810 nM | potency estimated from few doses [4]: 482 nM | potency estimated from few doses [5]: 39.1 nM | potency estimated from few doses [6]: 737 nM

COc1cc(Nc2ncc3c(C)nc(-c4cc5ccccc5[nH]4)n3n2)cc(OC)c1OC [GW869516X]
Kinobeads Data [7]: no target | Kinobeads Data [8]: no target | Kinobeads Data [9]: no target | Kinobeads Data [10]: no target | Kinobeads Data [11]: no target | Kinobeads Data [12]: no target | Kinobeads Data [13]: no target | Kinobeads Data [14]: no target | Kinobeads Data [15]: no target | Kinobeads Data [16]: no target | Kinobeads Data [17]: no target | Kinobeads Data [18]: no target | Kinobeads Data [19]: no target | Kinobeads Data [20]: no target | Kinobeads Data [21]: no target

Source: article PMC11062922 (Nature Chemical Biology, 2023)
